Among the data in ChEMBL document CHEMBL1649307, “Development, validation, and routine application of a high-performance liquid chromatography method coupled with a single mass detector for quantification of itraconazole, voriconazole, and posaconazole in human plasma” (Antimicrob Agents Chemother, 2010) are Stability values, retold here.

Common to all, as to type: ADME, organism-based
Holding throughout (conditions): in vivo

The test system of data set [1] is Plasma. Briefly: Metabolic stability in healthy human plasma assessed as compound recovery at 3 mg/kg QD. On the set-up: dose 3 mg/kg.
Data set [2] has as its system Plasma. Kind of data set: Metabolic stability in healthy human plasma assessed as compound recovery at 7 mg/kg BID. Set-up: dose 7 mg/kg.
For data set [3], the system named is Plasma. Briefly: Metabolic stability in healthy human plasma assessed as compound recovery at 6 mg/kg BID. On the set-up: dose 6 mg/kg.

For the compound `CCC(C)n1ncn(-c2ccc(N3CCN(c4ccc(OCC5COC(Cn6cncn6)(c6ccc(Cl)cc6Cl)O5)cc4)CC3)cc2)c1=O` (stereo not drawn) [ITRACONAZOLE], the Stability in data set [1] is recorded as 114.5%.
As for `C[C@@H](c1ncncc1F)[C@](O)(Cn1cncn1)c1ccc(F)cc1F` [VORICONAZOLE], the Stability in data set [2] was 97.2%.
On to `CC[C@@H]([C@H](C)O)n1ncn(-c2ccc(N3CCN(c4ccc(OC[C@@H]5CO[C@@](Cn6cncn6)(c6ccc(F)cc6F)C5)cc4)CC3)cc2)c1=O` [POSACONAZOLE], for which, in data set [3], the Stability amounted to 85.5%.
